Results as given in patent publication US11788086B2, “Antitumor compounds and tumor diagnosis” (CBMED GMBH CENTER FOR BIOMARKER RESEARCH IN MEDICINE, priority 2016, dated 2023).

What was measured:
[1] = tested on: rectum cancer PDX models; test: Protein expression in rectum cancer PDX models under chemotherapeutic treatment; assay type: in vivo, mice; settings: not statistically significant
Experimental: (§1) Protein expression was analyzed in NP-40 tissue lysates. Therefore normalized protein amounts were loaded onto 8% or 12.5% polyacrylamide gels in consideration of the molecular mass of the protein of interest. Electrophoresis was performed for 1.5 h at 120 V in SDS Running Buffer with the Mini-vertical electrophoresis unit (Amersham Biosciences). Then separated proteins were transferred to PVDF-membranes (Immobilin-P Transfer Membran; Millipore) using a Semi Dry Blotting Unit (JH BioInnovations) at 160 mA for 1.5 hours. Membranes were blocked with 5% non-fat dried milk (AppliChem) in Tris-buffered saline-Tween (TBS-T; 0.2 M Tris, 1.4 M NaCl, pH 7.4, 0.1% Tween) for 1 h, followed by a primary antibody incubation (overnight at 4° C.) and an 1 h secondary antibody incubation (1:3000 dilution, GE Healthcare). All primary antibodies were diluted in 5% bovine serum albumin diluted in TBS-T. Between incubation steps membranes were washed 3 times in TBS-T for 10 min. Membranes were then developed with an enhanced chemiluminescence (ECL) Western blotting system (GE healthcare) using the ChemiImager™ System (Alpha Innotech). Immunoblots were evaluated semi-quantitative using ImageJ (Schneider C A, et al. Nat Meth. 9(2012):671-5) software for densitometric analyses. Relative densities were then calculated by normalizing density values for each protein to the loading control (Actin).
(§2) Samples of patients suffering from colon cancer or GBMs were transplanted into 3 to 6 immunodeficient NOD/SCID mice. The tumor growth was monitored in a daily rhythm. At a size of about 1 cm^3, the tumors were removed and transferred to naive NMRI:nu/nu mice for chemosensitivity testing. Xenotransplanted carcinomas and metastases were treated with different standard and novel chemotherapeutic drugs. During chemosensitivity testing the tumor volume was measured regularly and used to generate growth curves. After a time period of 30-40 days the tumors were excised and analyzed by Immunoblot and Real-Time-PCR. Chemosensitivity data were kindly provided by EPO Berlin-Buch GmbH. Tumor volume of treatment in comparison to control (T/C) was calculated in percent.
To analyze protein expression of different eIF subunits under chemotherapeutic treatment, 4 rectum primary carcinoma (RPC) PDX models and 2 rectum metastasis (RM) PDX model were generated.

[2] = tested on: eIF protein expression; test: eIF protein expression after chemosensitivity testings in murine GBM xenograft models (immunoblot); assay type: in vivo, mice; settings: murine GBM xenografts; for eIF protein expression (eIF subunits overall): compared to PBS treated controls
Experimental: as §1, §2
Additionally to single treatments with each compound, combination therapies for Temozolomide/Everolimus, Temozolomide/Regorafenib and Temozolomide/Thalidomide were investigated.

[3] = tested on: tumor cells; settings: eIF5A2 siRNA combined with GC7, HCC; cited from earlier work
[4] = tested on: colon cancer PDX models; test: Protein expression in colon cancer patients derived xenograft (PDX) models under chemotherapeutic treatment; assay type: in vivo, mice; settings: not statistically significant
Experimental: Protein expression was analyzed in NP-40 tissue lysates. Therefore normalized protein amounts were loaded onto 8% or 12.5% polyacrylamide gels in consideration of the molecular mass of the protein of interest. Electrophoresis was performed for 1.5 h at 120 V in SDS Running Buffer with the Mini-vertical electrophoresis unit (Amersham Biosciences). Then separated proteins were transferred to PVDF-membranes (Immobilin-P Transfer Membran; Millipore) using a Semi Dry Blotting Unit (JH BioInnovations) at 160 mA for 1.5 hours. […] Immunoblots were evaluated semi-quantitative using ImageJ (Schneider C A, et al. Nat Meth. 9(2012):671-5) software for densitometric analyses. Relative densities were then calculated by normalizing density values for each protein to the loading control (Actin).
Samples of patients suffering from colon cancer or GBMs were transplanted into 3 to 6 immunodeficient NOD/SCID mice. The tumor growth was monitored in a daily rhythm. […] During chemosensitivity testing the tumor volume was measured regularly and used to generate growth curves. After a time period of 30-40 days the tumors were excised and analyzed by Immunoblot and Real-Time-PCR. […] Tumor volume of treatment in comparison to control (T/C) was calculated in percent.

[5] = tested on: hepatoma cell; settings: in vivo and in vitro; cited from earlier work
[6] = rectum metastasis (RM) PDX models

Compound | eIF3A protein expression [1, 6] | eIF protein expression (eIF subunits overall) [2] | eIF3C protein expression ([2]; vs PBS control) | also measured
O=c1[nH]cc(F)c(=O)[nH]1 [5-FU] | trend in downregulation |  |  | 
CO[C@H]1C[C@@H]2CC[C@@H](C)[C@@](O)(O2)C(=O)C(=O)N2CCCC[C@H]2C(=O)O[C@H]([C@H](C)C[C@@H]2CC[C@@H](OCCO)[C@H](OC)C2)CC(=O)[C@H](C)/C=C(\C)[C@@H](O)[C@@H](OC)C(=O)[C@H](C)C[C@H](C)/C=C/C=C/C=C/1C [Everolimus] |  | almost no difference | upregulated | 
NCCCCCCCN=C(N)N [GC7] |  |  |  | migration ability of tumor cells [3]: effectively reduces
CCc1c2c(nc3ccc(OC(=O)N4CCC(N5CCCCC5)CC4)cc13)-c1cc3c(c(=O)n1C2)COC(=O)[C@]3(O)CC [Irinotecan] | trend in downregulation | differential effects |  | 
COC(=O)c1ccc2c(c1)NC(=O)/C2=C(\Nc1ccc(N(C)C(=O)CN2CCN(C)CC2)cc1)c1ccccc1 [Nintedanib] | trend in downregulation |  |  | eIF3J protein expression [1, 6]: tendency to be downregulated
O=C1[O][Pt]2([NH][C@@H]3CCCC[C@H]3[NH]2)[O]C1=O [Oxaliplatin] |  |  |  | mTOR protein expression ([4]; colon primary carcinoma (CPC) PDX models, vs untreated control): trend to be upregulated; eIF4G protein expression ([1]; rectum primary carcinoma (RPC) PDX): increased
CNC(=O)c1cc(Oc2ccc(NC(=O)Nc3ccc(Cl)c(C(F)(F)F)c3)c(F)c2)ccn1 [Regorafenib] | trend in downregulation | totally down-regulated |  | 
CC[C@@H](C(=O)[C@@H](C)[C@@H](O)[C@H](C)[C@@H]1O[C@@H]([C@@H](CC)C(=O)O)CC[C@@H]1C)[C@H]1O[C@]2(C=C[C@@H](O)[C@]3(CC[C@@](C)([C@H]4CC[C@](O)(CC)[C@H](C)O4)O3)O2)[C@H](C)C[C@@H]1C [Salinomycin] |  | almost no difference | upregulated | 
CNC(=O)c1cc(Oc2ccc(NC(=O)Nc3ccc(Cl)c(C(F)(F)F)c3)cc2)ccn1 [Sorafenib] |  | almost no difference | upregulated | Mcl-1 protein [5]: reduce; RAF/MEK/ERK signaling transduction pathway [5]: inhibit; eIF4E phosphorylation level [5]: reduce; hepatoma cell apoptosis [5]: induce
O=C1CCC(N2C(=O)c3ccccc3C2=O)C(=O)N1 (stereo not shown) [Thalidomide] |  | almost no difference | upregulated | 
Bevacizumab: Anti-VEGF monoclonal antibody (angiogenesis inhibitor) | trend in downregulation |  |  | PTEN protein expression ([4]; CM PDX model): seemed to be decreased; eIF3K protein expression ([2]; vs PBS control): down-regulation
